Data from article PMC4999862, “Site-specific Isopeptide Bridge Tethering of Chimeric gp41 N-terminal Heptad Repeat Helical Trimers for the Treatment of HIV-1 Infection” (Scientific Reports, 2016).
Where two headings read alike, the source gives them in different places. Bridge positions count the residues as written; N and C are the ends. I, II: the chains in the order shown.

Legend:
[1] = system: HIV-1 IIIB (subtypes B, X4)
Method: (§1) Briefly, 1 × 10^4 MT-2 cells were infected with an HIV-1 strain (100 times the half-maximal tissue culture infective dose) in 200 μL of culture medium with or without the serially diluted test compounds overnight. Assay plates were incubated for 72 h, after which 100 μL of culture supernatant was collected from each well and assayed for p24 antigen using ELISA as described previously. The EC50 value of each test compound was calculated using Calcusyn software.

[2] = system: HIV-1 BaL (subtypes B, R5)
Method: as §1

[3] = CD spectroscopy and thermal denaturation of chimeric N-trimers; type: physicochemical; conditions: for Tm (°C): CD thermal denaturation at 222 nm, 15 °C to 90 °C, PBS pH 7.4, 10 μM; for Helicity (%): CD, PBS pH 7.4, 10 μM peptide
Method: All measurements were performed on an MOS-450 system (BioLogic, Claix, France) at a 4.0 nm bandwidth, 0.1 nm resolution, 0.1 cm path length, 4.0 s response time and 50 nm/min scanning speed. The individual N- and C-peptides as well as their equimolar mixtures were prepared in PBS (pH 7.4) at a final concentration of 10 μM and incubated at 37 °C for 30 min. Thermal denaturation was monitored by the ellipticity change at 222 nm by application of a thermal gradient from 15 °C to 90 °C with a 2 °C interval.

in vitro = type: cell-based; conditions: human; uninfected MT-2 cells, XTT assay; read-out: CC50 (half maximal cytotoxic concentration)
Method: The cytotoxic effect of the compounds on MT-2 cells was determined using the XTT assay as described previously.

[4] = target: T1, C34 (HIV-1 gp41 CHR peptide) (Human immunodeficiency virus type 1 group M subtype B, UniProt P04578); assay: Native-PAGE of N-peptides, C34 and their complexes; type: binding; conditions: equimolar mixture with C34, 37 °C 30 min, PBS pH 7.2, 12% Tris-glycine gel, Coomassie
Method: Equimolar mixtures of C34 and N-peptides (80 μM in PBS, pH 7.2) were incubated at 37 °C for 30 min. After mixing with 1: 1 Tris-glycine native sample buffer (BioRad, Hercules, CA), the individual N- and C- peptides and the mixture (40 μM in PBS, pH 7.2) were loaded (25 μL in each well) onto 12% Tris-glycine gels. Gel electrophoresis was run under a constant voltage of 120 V at room temperature for 2.5 h. The gel was then stained with Coomassie blue R250.

[5] = Metabolic stability in liver homogenate; type: in vitro ADME; conditions: rat liver homogenate, 20 μM, reversed-phase HPLC, UV 210 nm
Method: (§2) Three male SD rats weighing approximately 200 g each were obtained from the Animal Center of Beijing Institute of Pharmacology & Toxicology and were used for the metabolic stability assay. Animals were treated in accordance with the Animal Welfare Act and the “Guide for the Care and Use of Laboratory Animals” (NIH Publication 86-23, revised 1985). Preparation of Samples.Calibration samples were prepared by mixing various concentrations of each test compound ranging from 4 to 150 μM in H2O with rat plasma or tissue homogenate at a volume ratio of 100 μL:100 μL (Supplementary Figs S5–S7). Each test sample (100 μL) was spiked with 100 μL of acetonitrile containing 0.1% TFA. The mixture was vortexed and centrifuged at 18,000 g for 10 min. Then, the supernatant was transferred to HPLC autosampler vials, and aliquots (10 μL) were injected into the HPLC system. […] The mobile phase was composed of solvent A (water containing 0.1% TFA) and solvent B (70% acetonitrile and 0.1% TFA). […] The HPLC analysis was performed on a Waters X-Bridge C8 column (4.6 × 250 mm, 5 μm, 300 Å) at ambient temperature upon injection of 20 μL of each standard and/or sample to obtain the chromatogram. The only exception was for (IZ14N24N)3 in plasma and kidney homogenate, which was analyzed using a Phenomenex Jupiter C4 column (4.6 × 250 mm, 5 μm, 300 Å).

[6] = Metabolic stability in kidney homogenate; type: in vitro ADME; conditions: rat kidney homogenate, 20 μM, reversed-phase HPLC, UV 210 nm
Method: as §2

[7] = system: NL4-3 mutant (36G)V38A/N42D; conditions: read-out: EC50 against NL4-3 (36G)V38A/N42D; T20-resistant strain; MT-2 cells, p24 ELISA; mean ± SD of three independent experiments
Method: as §1

[8] = system: NL4-3 mutant (36G)V38A/N42T; conditions: read-out: EC50 against NL4-3 (36G)V38A/N42T; T20-resistant strain; MT-2 cells, p24 ELISA; mean ± SD of three independent experiments
Method: as §1

[9] = system: NL4-3 mutant (36G)N42T/N43K; conditions: read-out: EC50 against NL4-3 (36G)N42T/N43K; T20-resistant strain; MT-2 cells, p24 ELISA; mean ± SD of three independent experiments
Method: as §1

HIV-1NL4-3(D36G) = conditions: read-out: EC50 against NL4-3 D36G; T20-sensitive strain; MT-2 cells, p24 ELISA; mean ± SD of three independent experiments
Method: as §1

[10] = system: NL4-3 mutant (36G)V38E/N42S; conditions: read-out: EC50 against NL4-3 (36G)V38E/N42S; T20-resistant strain; MT-2 cells, p24 ELISA; mean ± SD of three independent experiments
Method: as §1

NL4-3 mutant (36G)V38A = conditions: read-out: EC50 against NL4-3 (36G)V38A; T20-resistant strain; MT-2 cells, p24 ELISA; mean ± SD of three independent experiments
Method: as §1

[11] = system: T20-sensitive and -resistant HIV-1 NL4-3 strains; conditions: read-out: EC50 values against both T20-sensitive and -resistant strains; range over the six NL4-3 strains of Table 2
Method: as §1

[12] = system: HIV-1 Env-mediated cell-cell fusion (HL2/3 effector cells, TZM-bl target cells); conditions: for EC50: read-out: EC50 (nM) for cell-cell fusion, HL2/3 effector + TZM-bl target cells, 6 h at 37 °C, luciferase read-out, mean ± SD of three independent experiments
Method: The inhibitory activities of these peptides on HIV-1 Env-mediated cell-cell fusion were determined as described previously. Effector cells were HL2/3 cells, which stably express HIV Gag, Env, Tat, Rev, and Nef proteins at the cell surface (contributed by Drs. Barbara Felber and George Pavlakis). TZM-bl cells, which express high levels of CD4 and coreceptors, were used as target cells (contributed by Drs. John C. Kappes and Xiaoyun Wu). HL2/3 cells and TZM-b1 cells were obtained from the NIH AIDS Reference and Reagent Program. TZM-bl cells (2.5 × 10^4/well) were plated in a 96-well plate (Corning Costar) and cultured overnight at 37 °C in 5% CO2. Thereafter, serially diluted inhibitors were added (20 μL/well), followed by the addition of HL2/3 cells (7.5 × 10^4/well). After incubation for 6 h at 37 °C in 5% CO2, fusion efficiency was determined by measuring the luciferase activity using the Luciferase Assay System (Promega, Madison, WI) on a SpectraMax M5 plate reader (Molecular Devices, Sunnyvale, CA).

[13] = target: T1, C34 (HIV-1 gp41 CHR peptide); type: binding; conditions: CD, equimolar mixture 10 μM in PBS pH 7.4; θ222nm of 33000 for 100 % helicity
[14] = read-out: EC50 (nM) for inhibition HIV-1IIIB replication, MT-2 cells, 100 TCID50, 72 h, p24 ELISA, mean ± SD of three independent experiments
[15] = read-out: EC50 (nM) for inhibition HIV-1BaL replication, 100 TCID50, 72 h, p24 ELISA, mean ± SD of three independent experiments

T1 sequence (P04578 628-661): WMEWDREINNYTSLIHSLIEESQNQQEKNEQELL

Enfuvirtide
EC50 ([1]; IIIB (subtypes B, X4, 72 h)): 4.9 ± 0.6 nM | EC50 ([2]; BaL (subtypes B, R5, 72 h)): 25.2 ± 1.9 nM

I: Ac-EQEAIKKKIEAIEKAIEAQQHLLQLTVWGIKQLQARIL-NH2 / II: Ac-EQEAIKKKIEAIEKAIEAQQHLLQLTVWGIKQLQARIL-NH2 / III: Ac-EQEAIKKKIEAIEKAIEAQQHLLQLTVWGIKQLQARIL-NH2 (amide I:8-III:13, I:13-II:8, II:13-III:8) [(IZ14N24N)3]
Tm (°C) [3]: > 90 °C | Helicity (%) [3]: 100% | CC50 (in vitro): > 20000 nM | complex formation with C34 in N-PAGE [4]: form a stable complex with C34 | stability in liver homogenate for 24 h [5]: highly stable | stability in kidney homogenate for 24 h [6]: highly stable | EC50 [7]: 2.7 ± 0.1 nM | EC50 [8]: 1.3 ± 0.8 nM | EC50 [9]: 3.3 ± 0.1 nM | EC50 [1, 14]: 0.4 ± 0.01 nM | EC50 (HIV-1NL4-3(D36G)): 1.3 ± 0.2 nM | EC50 [10]: 1.2 ± 0.2 nM | EC50 [2, 15]: 3.2 ± 0.9 nM | EC50 (NL4-3 mutant (36G)V38A): 0.7 ± 0.1 nM | EC50 [11]: 0.7 to 3.3 nM | EC50 [12]: 2.79 ± 0.1 nM | fold greater cell-cell fusion inhibitory activity than (IZ14N17)3 ([12]; relative to (IZ14N17)3): about 8 fold | Helicity (%) of the 6HBs formed between chimeric N-peptides and C34 [13]: 87%

I: Ac-EQEAIKKKIEAIEKLLQLTVWGIKQLQARIL-NH2 / II: Ac-EQEAIKKKIEAIEKLLQLTVWGIKQLQARIL-NH2 / III: Ac-EQEAIKKKIEAIEKLLQLTVWGIKQLQARIL-NH2 (amide I:8-III:13, I:13-II:8, II:13-III:8) [(IZ14N17)3]
Tm (°C) [3]: > 90 °C | Helicity (%) [3]: 100% | CC50 (in vitro): 7300 ± 1700 nM | EC50 [1, 14]: 1.9 ± 1.2 nM | EC50 [2, 15]: 3.3 ± 2 nM | EC50 [12]: 21.9 ± 2.4 nM | Helicity (%) of the 6HBs formed between chimeric N-peptides and C34 [13]: 74%

I: Ac-EQEAIKKKIEAIEKLLQLTVWGIKQLQARILAVERYLK-NH2 / II: Ac-EQEAIKKKIEAIEKLLQLTVWGIKQLQARILAVERYLK-NH2 / III: Ac-EQEAIKKKIEAIEKLLQLTVWGIKQLQARILAVERYLK-NH2 (amide I:8-III:13, I:13-II:8, II:13-III:8) [(IZ14N24C)3]
Tm (°C) [3]: > 90 °C | Helicity (%) [3]: 100% | CC50 (in vitro): 7700 ± 800 nM | EC50 [1, 14]: 4 ± 2.3 nM | EC50 [2, 15]: 6.6 ± 0.2 nM | EC50 [12]: 6.4 ± 1.6 nM | Helicity (%) of the 6HBs formed between chimeric N-peptides and C34 [13]: 76%

I: Ac-IKKEQEAIKKKIEAIEKLLQLTVWGIKQLQARIL-NH2 / II: Ac-IKKEQEAIKKKIEAIEKLLQLTVWGIKQLQARIL-NH2 / III: Ac-IKKEQEAIKKKIEAIEKLLQLTVWGIKQLQARIL-NH2 (amide I:11-II:16, I:16-III:11, II:11-III:16) [(IZ17N17)3]
Tm (°C) [3]: > 90 °C | Helicity (%) [3]: 98% | CC50 (in vitro): 4000 ± 300 nM | EC50 [1, 14]: 4.1 ± 3.1 nM | EC50 [2, 15]: 9 ± 0.2 nM | EC50 [12]: 46 ± 4.6 nM | Helicity (%) of the 6HBs formed between chimeric N-peptides and C34 [13]: 70%

I: Ac-IKKKIEAIEKAIEAQQHLLQLTVWGIKQLQARIL-NH2 / II: Ac-IKKKIEAIEKAIEAQQHLLQLTVWGIKQLQARIL-NH2 / III: Ac-IKKKIEAIEKAIEAQQHLLQLTVWGIKQLQARIL-NH2 (amide I:4-II:9, I:9-III:4, II:4-III:9) [(IZ10N24N)3]
Tm (°C) [3]: > 90 °C | Helicity (%) [3]: 100% | CC50 (in vitro): 6900 ± 1000 nM | EC50 [1, 14]: 1.8 ± 0.7 nM | EC50 [2, 15]: 4.7 ± 0.5 nM | EC50 [12]: 28.3 ± 4.3 nM | Helicity (%) of the 6HBs formed between chimeric N-peptides and C34 [13]: 80%

I: Ac-IKKKIEAIEKLLQLTVWGIKQLQARIL-NH2 / II: Ac-IKKKIEAIEKLLQLTVWGIKQLQARIL-NH2 / III: Ac-IKKKIEAIEKLLQLTVWGIKQLQARIL-NH2 (amide I:4-II:9, I:9-III:4, II:4-III:9) [(IZ10N17)3]
Tm (°C) [3]: > 90 °C | Helicity (%) [3]: 75% | CC50 (in vitro): 2000 ± 200 nM | complex formation with C34 in N-PAGE [4]: two bands with nearly the same density | EC50 [1, 14]: 59.4 ± 9.1 nM | EC50 [2, 15]: 74.7 ± 6 nM | EC50 [12]: 190 ± 4.6 nM | fold less potency than (IZN17R)3 in cell-cell fusion ([12]; relative to (IZN17R)3): 17 fold | Helicity (%) of the 6HBs formed between chimeric N-peptides and C34 [13]: 73%

I: Ac-IKKKIEAIEKLLQLTVWGIKQLQARILAVERYLK-NH2 / II: Ac-IKKKIEAIEKLLQLTVWGIKQLQARILAVERYLK-NH2 / III: Ac-IKKKIEAIEKLLQLTVWGIKQLQARILAVERYLK-NH2 (amide I:4-II:9, I:9-III:4, II:4-III:9) [(IZ10N24C)3]
Tm (°C) [3]: > 90 °C | Helicity (%) [3]: 100% | CC50 (in vitro): 2000 ± 400 nM | EC50 [1, 14]: 4.4 ± 0.4 nM | EC50 [2, 15]: 11.4 ± 5.5 nM | EC50 [12]: 13.8 ± 1.5 nM | Helicity (%) of the 6HBs formed between chimeric N-peptides and C34 [13]: 63%
